Source: US4987129A, “Cephalosporin derivatives” (priority 1987, dated 1991)
Converted amounts (≈) assume the structure as drawn. Structures can show the parent of a compound that is named as a salt. Where two headings read alike, the source gives them in different places.

Columns and labels:
Type in all cases: cell-based
[1] = test system: Staphylococcus aureus Smith; assay: minimum inhibitory concentration (MIC), standard method of Japan Society of Chemotherapy; conditions: Tables 2A, 2B
Method: (§1) The minimum inhibitory concentration (MIC) of the compounds obtained in the above Examples were measured according to the standard method of Japan Society of Chemotherapy.

[2] = test system: Citrobacter freundii GN7391; assay: minimum inhibitory concentration (MIC)
Method: as §1

[3] = test system: Enterobacter cloacae 908RN; assay: minimum inhibitory concentration (MIC)
Method: as §1

[4] = test system: Enterobacter cloacae GN7471; assay: minimum inhibitory concentration (MIC)
Method: as §1

Escherichia coli GN5482 = assay: minimum inhibitory concentration (MIC); conditions: Tables 2A, 2B
Method: as §1

Escherichia coli ML4704 = assay: minimum inhibitory concentration (MIC)
Method: as §1

[5] = test system: Klebsiella pneumoniae 4at521; assay: minimum inhibitory concentration (MIC); conditions: Tables 2A, 2B
Method: as §1

Proteus vulgris GN7919 = assay: minimum inhibitory concentration (MIC)
Method: as §1

[6] = test system: Pseudomonas aeruginosa 4au542; assay: minimum inhibitory concentration (MIC); conditions: Tables 2A, 2B
Method: as §1

[7] = test system: Pseudomonas aeruginosa 5D58-1; assay: minimum inhibitory concentration (MIC); conditions: 5D581, Tables 2A, 2B
Method: as §1

[8] = test system: Pseudomonas aeruginosa GN10362; assay: minimum inhibitory concentration (MIC); conditions: Tables 2A, 2B
Method: as §1

[9] = test system: Serratia marcescens GN10857; assay: minimum inhibitory concentration (MIC); conditions: Tables 2A, 2B
Method: as §1

[10] = test system: Staphylococcus aureus IAA498; assay: minimum inhibitory concentration (MIC); conditions: Tables 2A, 2B
Method: as §1

[11] = test system: Pseudomonas cepacia OF189; assay: minimum inhibitory concentration (MIC); conditions: Burkholderia cepacia, Tables 2A, 2B
Method: as §1

[12] = test system: Pseudomonas maltophilia OF247; assay: minimum inhibitory concentration (MIC); conditions: Stenotrophomonas maltophilia, Tables 2A, 2B
Method: as §1

[13] = Citrobacter freundii GN7391, Tables 2A, 2B, read-out: MIC
[14] = Enterobacter cloacae 908RN, Tables 2A, 2B, read-out: MIC
[15] = Enterobacter cloacae GN7471, Tables 2A, 2B, read-out: MIC
[16] = Escherichia coli ML4704, Tables 2A, 2B, read-out: MIC
[17] = Proteus vulgris GN7919, Tables 2A, 2B, read-out: MIC
[18] = Enterobacter cloacae 908RN, Tables 2A, 2B

| MIC [2, 13] [µg/mL] | MIC [3, 14] [µg/mL] | MIC [4, 15] [µg/mL] | MIC (Escherichia coli ML4704; [16]) [µg/mL] | MIC (Proteus vulgris GN7919; [17]) [µg/mL] | SMILES | MIC [1] [µg/mL] | MIC (Escherichia coli GN5482) [µg/mL] | MIC [5] [µg/mL] | MIC [6] [µg/mL] | MIC [7] [µg/mL] | MIC [8] [µg/mL] | MIC [9] [µg/mL] | MIC [10] [µg/mL] | MIC [3, 18] [µg/mL] | MIC [11] [µg/mL] | MIC [12] [µg/mL] | also measured |
| --- | --- | --- | --- | --- | --- | --- | --- | --- | --- | --- | --- | --- | --- | --- | --- | --- | --- |
| 50 | 50 | 3.13 | 0.025 | 25 | CON=C(C(=O)NC1C(=O)N2C(C(=O)O)=C(CSc3cc(C)nc4nc(CO)nn34)CSC12)c1csc(N)n1 (stereo not drawn) [Example 17, 7-[2-(2-amino-1,3-thiazol-4-yl)-2-(methoxyimino)acetamido]-3-[(2-hydroxymethyl-5-methyl-s-triazolo[1,5-a]pyrimidin-7-yl)thiomethyl]-3-cephem-4-carboxylic acid.hydrochloride] | 0.39 | 0.1 | 0.39 | 100 | 100 | 100 | 12.5 | 12.5 | – | – | – | – |
| 12.5 (≈ 15.1 µM) | 6.25 (≈ 7.55 µM) | 3.13 (≈ 3.78 µM) | 0.025 (≈ 0.0302 µM) | 1.56 (≈ 1.88 µM) | COCc1nc2nc(C)cc(SCC3=C(C(=O)O)N4C(=O)C(NC(=O)C(=NOC(C)(C)C(=O)NNC(=O)c5ccc(O)c(O)c5)c5csc(N)n5)C4SC3)n2n1 (stereo not drawn) [Example 24, 7-{2-[2-amino-1,3-thiazol-4-yl]-2-[1-(3-(3,4-dihydroxybenzoyl)carbazoyl)-1-methylethoxyimino]acetamido}-3-[(2-methoxymethyl-5-methyl-s-triazolo[1,5-a]-pyrimidin-7-yl)thiomethyl]-3-cephem-4-carboxylic acid.hydrochlride] | 3.13 (≈ 3.78 µM) | 0.025 (≈ 0.0302 µM) | 0.025 (≈ 0.0302 µM) | 0.2 (≈ 0.242 µM) | 0.05 (≈ 0.0604 µM) | 0.05 (≈ 0.0604 µM) | 0.39 (≈ 0.471 µM) | 6.25 (≈ 7.55 µM) | – | – | – | – |
| 50 (≈ 82.6 µM) | 50 (≈ 82.6 µM) | 6.25 (≈ 10.3 µM) | 0.05 (≈ 0.0826 µM) | 25 (≈ 41.3 µM) | COCc1nc2nc(C)cc(SCC3=C(C(=O)O)N4C(=O)C(NC(=O)C(=NOC)c5csc(N)n5)C4SC3)n2n1 (stereo not drawn) [Example 26] | 0.78 (≈ 1.29 µM) | 0.39 (≈ 0.644 µM) | 1.56 (≈ 2.58 µM) | > 100 | 100 (≈ 165 µM) | 100 (≈ 165 µM) | 25 (≈ 41.3 µM) | 25 (≈ 41.3 µM) | – | – | – | – |
| 1.56 (≈ 1.85 µM) | 1.56 (≈ 1.85 µM) | 0.78 (≈ 0.924 µM) | 0.025 (≈ 0.0296 µM) | 3.13 (≈ 3.71 µM) | CC(C)(ON=C(C(=O)NC1C(=O)N2C(C(=O)O)=C(CSc3cc(C(=O)O)nc4nc(CO)nn34)CSC12)c1csc(N)n1)C(=O)NNC(=O)c1ccc(O)c(O)c1 (stereo not drawn) [Example 30, 7-{2-[2-amino-1,3-thiazol-4-yl]-2-[1-(3-(3,4-dihydroxybenzoyl)carbazoyl)-1-methylethoxyimino]acetamido}-3-[(5-carboxy-2-hydroxymethyl-s-triazolo[1,5-a]-pyrimidin-7-yl)thiomethyl]-3-cephem-4-carboxylic acid.hydrochlride] | 12.5 (≈ 14.8 µM) | 0.05 (≈ 0.0593 µM) | 0.025 (≈ 0.0296 µM) | 0.2 (≈ 0.237 µM) | 0.1 (≈ 0.119 µM) | 0.025 (≈ 0.0296 µM) | 0.78 (≈ 0.924 µM) | 25 (≈ 29.6 µM) | – | – | – | – |
| – | – | – | – | – | Cc1nc2nc(CO)cc(SCC3=C(C(=O)[O-])N4C(=O)C(NC(=O)C(=NOC(C)(C)C(=O)NNC(=O)c5ccc(O)c(O)c5)c5csc(N)n5)[C@H]4SC3)n2n1.[Na+] (stereo partly drawn) [Example 37, sodium 7-{2-[2-amino-1,3-thiazol-4-yl]-2-[1-(3-(3,4-dihydroxybenzoyl)carbazoyl)-1-methylethoxyimino]acetamido}-3-[(5-hydroxymethyl-2-methyl-s-triazolo[1,5-a]pyrimidin-7-yl)thiomethyl]-3-cephem-4-carboxylate] | 3.13 | 0.05 | 0.012 | 0.2 | 0.1 | 0.1 | 0.39 | 6.25 | – | 0.025 | 0.39 | MIC ([2]; Citrobacter freundii, GN7391): 6.25 µg/mL; MIC [3]: 1.56 µg/mL; MIC ([4]; Enterobacter cloacae, GN7471): 1.56 µg/mL; MIC (Escherichia coli ML4704; Escherichia coli, ML4704): 0.1 µg/mL; MIC (Proteus vulgris GN7919): 1.56 µg/mL |
| 25 (≈ 42.3 µM) | 50 (≈ 84.5 µM) | 3.13 (≈ 5.29 µM) | 0.05 (≈ 0.0845 µM) | 6.25 (≈ 10.6 µM) | CON=C(C(=O)NC1C(=O)N2C(C(=O)O)=C(CSc3cc(CO)nc4nc(C)nn34)CSC12)c1csc(N)n1 (stereo not drawn) [Example 38] | 0.78 (≈ 1.32 µM) | 0.1 (≈ 0.169 µM) | 0.78 (≈ 1.32 µM) | > 100 | 100 (≈ 169 µM) | 100 (≈ 169 µM) | 25 (≈ 42.3 µM) | 12.5 (≈ 21.1 µM) | – | 25 (≈ 42.3 µM) | 50 (≈ 84.5 µM) | – |
| – | – | – | – | – | CC(C)(ON=C(C(=O)NC1C(=O)N2C(C(=O)[O-])=C(CSc3cc(CO)nc4nc(CO)nn34)CS[C@H]12)c1csc(N)n1)C(=O)NNC(=O)c1ccc(O)c(O)c1.[Na+] (stereo partly drawn) [Example 42, sodium 7-{2-[2-amino-1,3-thiazol-4-yl]-2[1-(3-(3,4-dihydroxybenzoyl)carbazoyl)-1-methylethoxyimino]acetamido}-3-[(2,5-bis(hydroxymethyl)-s-triazolo[1,5-a]pyrimidin-7 yl)thiomethyl]-3-cephem-4-carboxylate] | 3.13 | 0.1 | 0.2 | 0.2 | 0.1 | 0.1 | 0.39 | 6.25 | – | 0.025 | 0.78 | MIC ([2]; Citrobacter freundii, GN7391): 6.25 µg/mL; MIC [3]: 3.13 µg/mL; MIC ([4]; Enterobacter cloacae, GN7471): 1.56 µg/mL; MIC (Escherichia coli ML4704; Escherichia coli, ML4704): 0.1 µg/mL; MIC (Proteus vulgris GN7919): 3.13 µg/mL |
| – | – | – | – | – | Cc1cc(SCC2=C(C(=O)[O-])N3C(=O)C(NC(=O)C(=NOC(C)(C)C(=O)NN=Cc4ccc(O)c(O)c4)c4csc(N)n4)[C@H]3SC2)n2nc(CO)nc2n1.[Na+] (stereo partly drawn) [Example 44, sodium 7-{2-[2-amino-1,3-thiazol-4-yl]-2-[1-(3-(3,4-dihydroxybenzylidene)carbazoyl)-1-methylethoxyimino]acetamido}-3-[(2-hydroxymethyl-5-methyl-s-triazolo[1,5-a]pyrimidin-7-yl)thiomethyl]-3-cephem-4-carboxylate] | 3.13 | 0.1 | 0.39 | 0.78 | 0.39 | 0.78 | 0.78 | 6.25 | – | 0.2 | 12.5 | MIC ([2]; Citrobacter freundii, GN7391): 12.5 µg/mL; MIC [3]: 12.5 µg/mL; MIC ([4]; Enterobacter cloacae, GN7471): 1.56 µg/mL; MIC (Escherichia coli ML4704; Escherichia coli, ML4704): 0.39 µg/mL; MIC (Proteus vulgris GN7919): 12.5 µg/mL |

| SMILES | MIC [2, 13] [µg/mL] | MIC [3, 14] [µg/mL] | MIC [4, 15] [µg/mL] | MIC (Escherichia coli ML4704; [16]) [µg/mL] | MIC (Proteus vulgris GN7919; [17]) [µg/mL] | MIC [1] [µg/mL] | MIC (Escherichia coli GN5482) [µg/mL] | MIC [5] [µg/mL] | MIC [6] [µg/mL] | MIC [7] [µg/mL] | MIC [8] [µg/mL] | MIC [9] [µg/mL] | MIC [10] [µg/mL] | MIC [3, 18] [µg/mL] | MIC [11] [µg/mL] | MIC [12] [µg/mL] | also measured |
| --- | --- | --- | --- | --- | --- | --- | --- | --- | --- | --- | --- | --- | --- | --- | --- | --- | --- |
| Cc1cc(SCC2=C(C(=O)O)N3C(=O)C(NC(=O)C(=NOC(C)(C)C(=O)O)c4csc(N)n4)[C@H]3SC2)n2nc(CO)nc2n1 (stereo partly drawn) [Example 20, 7-[2-(2-amino-1,3-thiazol-4-yl)-2-(1-carboxy-1-methylethoxyimino)acetamido]-3-[(2-hydroxymethyl-5-methyl-s-triazolo[1,5-a]pyrimidin-7-yl)thiomethyl]-3-cephem-4-carboxylic acid] | > 100 | – | 6.25 (≈ 9.42 µM) | 0.39 (≈ 0.588 µM) | 3.13 (≈ 4.72 µM) | 3.13 (≈ 4.72 µM) | 0.78 (≈ 1.18 µM) | 0.78 (≈ 1.18 µM) | 12.5 (≈ 18.8 µM) | 6.25 (≈ 9.42 µM) | 12.5 (≈ 18.8 µM) | 12.5 (≈ 18.8 µM) | 6.25 (≈ 9.42 µM) | 100 (≈ 151 µM) | – | – | – |
| CON=C(C(=O)NC1C(=O)N2C(C(=O)O)=C(CSc3cc(C(=O)O)nc4nc(CO)nn34)CSC12)c1csc(N)n1 (stereo not drawn) [Example 31] | 100 (≈ 161 µM) | – | 6.25 (≈ 10.1 µM) | 0.1 (≈ 0.161 µM) | 50 (≈ 80.4 µM) | 6.25 (≈ 10.1 µM) | 0.2 (≈ 0.322 µM) | 0.2 (≈ 0.322 µM) | > 100 | > 100 | 100 (≈ 161 µM) | 25 (≈ 40.2 µM) | 12.5 (≈ 20.1 µM) | 100 (≈ 161 µM) | – | – | – |
| Cc1cc(SCC2=C(C(=O)O)N3C(=O)C(NC(=O)C(=NOC(C)(C)C(=O)NN)c4csc(N)n4)C3SC2)n2nc(CO)nc2n1 (stereo not drawn) [Example 43, 7-[2-(2-amino-1,3-thiazol-4-yl)-2-(1-carbazoyl-1-methylethoxyimino)acetamido]-3-[(2-hydroxymethyl5-methyl-s-triazolo[1,5-a]pyrimidin-7-yl)thiomethyl]-3-cephem-4-carboxylate.dihydrochloride] | 100 | – | 25 | 0.2 | 50 | 6.25 | 0.39 | 3.13 | 100 | 25 | 25 | 50 | 12.5 | > 100 | 50 | 50 | – |
| COCc1nc2nc(C)cc(SCC3=C(C(=O)O)N4C(=O)C(NC(=O)C(=NOC(C)(C)C(=O)NN)c5csc(N)n5)C4SC3)n2n1 (stereo not drawn) [Example 47] | > 100 | – | 50 (≈ 72.3 µM) | 0.2 (≈ 0.289 µM) | 50 (≈ 72.3 µM) | 6.25 (≈ 9.03 µM) | 0.78 (≈ 1.13 µM) | 6.25 (≈ 9.03 µM) | > 100 | 50 (≈ 72.3 µM) | 50 (≈ 72.3 µM) | 100 (≈ 145 µM) | 12.5 (≈ 18.1 µM) | > 100 | 100 (≈ 145 µM) | 100 (≈ 145 µM) | – |
